Reference: patent US7138361B2, “Herbicidal heterocycles” (E. I. du Pont de Nemours and Company, priority 2000, dated 2006)

Tests used:
Assay type in all cases: in vivo
[1] = tested on: barnyardgrass (Echinochloa crus-galli); assay: Test C flooded paddy test; conditions: for Barnyardgrass plant response rating: Flooded Paddy, scale 0 to 100, 0 no effect, 100 complete control; for Plant response rating, Barnyardgrass: flooded paddy test, scale 0 to 100 (0 no effect, 100 complete control)
Summary of the method: (§1)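 Plants were grown to the 2-leaf stage under flooded paddy conditions and treated. They were then kept in a greenhouse for 12 to 14 days and visually rated against untreated controls on a 0–100 scale, where 0 is no effect and 100 is complete control.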

[2] = tested on: smallflower flatsedge (Cyperus difformis); assay: Test C flooded paddy test; conditions: for Flatsedge plant response rating: Flooded Paddy, scale 0 to 100, 0 no effect, 100 complete control; for Plant response rating, Flatsedge: flooded paddy test, scale 0 to 100 (0 no effect, 100 complete control)
Summary of the method: as §1

rice (Oryza saliva) [3] = assay: Test C flooded paddy test; conditions: for Rice plant response rating: Flooded Paddy, scale 0 to 100, 0 no effect, 100 complete control; for Plant response rating, Rice: flooded paddy test, scale 0 to 100 (0 no effect, 100 complete control)
Summary of the method: as §1

[4] = tested on: duck salad (Heteranthera limosa); assay: Test C flooded paddy test; conditions: for Ducksalad plant response rating: Flooded Paddy, scale 0 to 100, 0 no effect, 100 complete control; for Plant response rating, Ducksalad: flooded paddy test, scale 0 to 100 (0 no effect, 100 complete control)
Summary of the method: as §1

[5] = tested on: barnyardgrass (Echinochloa crus-galli); assay: Test B preemergence
From the text: (§2) Seeds selected from barnyardgrass (Echinochloa crus-galli), Surinam grass (Brachiaria decumbens), cocklebur (Xanthium strumarium), corn (Zea mays), crabgrass (Digitaria sanguinalis), giant foxtail (Setaria faberii), lambsquarters (Chenopodium album), morning glory (Ipomoea hederacea), pigweed (Amaranthus retroflexus), rice (Oryza saliva) and velvetleaf (Abutilon theophrasti) were planted and treated preemergence with test chemicals formulated in a non-phytotoxic solvent mixture which included a surfactant.
(§3) At the same time, plants selected from these crop and weed species and also blackgrass (Alopecurus myosuroides), wheat (Triticum aestivum) and wild oat (Avena fatua) were treated with postemergence applications of test chemicals formulated in the same manner. Plants ranged in height from 2 to 18 cm (1- to 4-leaf stage) for postemergence treatments. Plant species in the flooded paddy test consisted of rice (Oryza saliva), smallflower flatsedge (Cyperus difformis), duck salad (Heteranthera limosa) and barnyardgrass (Echinochloa crus-galli) grown to the 2-leaf stage for testing. Treated plants and controls were maintained in a greenhouse for 13 to 15 days, after which time all species were compared to controls and visually evaluated. Plant response ratings, summarized in Table B, are based on a scale of 0 to 100 where 0 is no effect and 100 is complete control. A dash (-) response means no test result.

[6] = tested on: giant foxtail (Setaria faberii); assay: Test B preemergence
From the text: as §2, §3

[7] = tested on: cocklebur (Xanthium strumarium); assay: Test B preemergence
From the text: as §2, §3

[8] = tested on: lambsquarters (Chenopodium album); assay: Test B preemergence
From the text: as §2, §3

[9] = tested on: velvetleaf (Abutilon theophrasti); assay: Test B preemergence
From the text: as §2, §3

[10] = tested on: Surinam grass (Brachiaria decumbens); assay: Test B preemergence
From the text: as §2, §3

[11] = tested on: crabgrass (Digitaria sanguinalis); assay: Test B preemergence
From the text: as §2, §3

rice (Oryza saliva) [12] = assay: Test B preemergence
From the text: as §2, §3

[13] = tested on: morning glory (Ipomoea hederacea); assay: Test B preemergence
From the text: as §2, §3

[14] = tested on: pigweed (Amaranthus retroflexus); assay: Test B preemergence
From the text: as §2, §3

corn (Zea mays) [15] = assay: Test B preemergence
From the text: as §2, §3

[16] = tested on: barnyardgrass (Echinochloa crus-galli); assay: Test B postemergence; conditions: 13 to 15 days
From the text: as §2, §3

[17] = tested on: wheat (Triticum aestivum); assay: Test B postemergence; conditions: 13 to 15 days
From the text: as §2, §3

[18] = tested on: giant foxtail (Setaria faberii); assay: Test B postemergence; conditions: 13 to 15 days
From the text: as §2, §3

[19] = tested on: cocklebur (Xanthium strumarium); assay: Test B postemergence; conditions: 13 to 15 days
From the text: as §2, §3

[20] = tested on: lambsquarters (Chenopodium album); assay: Test B postemergence; conditions: 13 to 15 days
From the text: as §2, §3

[21] = tested on: velvetleaf (Abutilon theophrasti); assay: Test B postemergence; conditions: 13 to 15 days
From the text: as §2, §3

[22] = tested on: blackgrass (Alopecurus myosuroides); assay: Test B postemergence; conditions: 13 to 15 days
From the text: as §2, §3

wild oat (Avena fatua) = assay: Test B postemergence; conditions: 13 to 15 days
From the text: as §2, §3

[23] = tested on: Surinam grass (Brachiaria decumbens); assay: Test B postemergence; conditions: 13 to 15 days
From the text: as §2, §3

[24] = tested on: crabgrass (Digitaria sanguinalis); assay: Test B postemergence; conditions: 13 to 15 days
From the text: as §2, §3

[25] = tested on: morning glory (Ipomoea hederacea); assay: Test B postemergence; conditions: 13 to 15 days
From the text: as §2, §3

[26] = tested on: pigweed (Amaranthus retroflexus); assay: Test B postemergence; conditions: 13 to 15 days
From the text: as §2, §3

corn (Zea mays) [27] = assay: Test B postemergence; conditions: 13 to 15 days
From the text: as §2, §3

[28] = Preemergence, Rate 500 g/ha, scale 0 to 100, 0 no effect, 100 complete control
[29] = preemergence, Rate 125 g/ha, scale of 0 to 100 where 0 is no effect and 100 is complete control, 13 to 15 days
[30] = Rate 125 g/ha, scale 0 (no effect) to 100 (complete control)
[31] = Rate 500 g/ha, scale 0 to 100, 0 is no effect, 100 is complete control

CC(C)(C)c1ccn(C2OCN(c3cccc(OC(F)(F)F)c3)C2=O)n1 (stereo not drawn) [Compound 66]
Barnyardgrass plant response rating ([1]; Rate 250 g/ha): 100
Barnyardgrass plant response rating ([1]; Rate 500 g/ha): 100
Plant response rating, Barnyardgrass ([1]; Rate 62 g/ha): 70
Plant response rating, Barnyardgrass ([1]; Rate 125 g/ha): 100
Flatsedge plant response rating ([2]; Rate 250 g/ha): 100
Flatsedge plant response rating ([2]; Rate 500 g/ha): 100
Plant response rating, Flatsedge ([2]; Rate 62 g/ha): 100
Plant response rating, Flatsedge ([2]; Rate 125 g/ha): 100
Rice plant response rating (rice (Oryza saliva) [3]; Rate 250 g/ha): 50
Rice plant response rating (rice (Oryza saliva) [3]; Rate 500 g/ha): 100
Plant response rating, Rice (rice (Oryza saliva) [3]; Rate 62 g/ha): 0
Plant response rating, Rice (rice (Oryza saliva) [3]; Rate 125 g/ha): 0
Ducksalad plant response rating ([4]; Rate 250 g/ha): 100
Ducksalad plant response rating ([4]; Rate 500 g/ha): 100
Plant response rating, Ducksalad ([4]; Rate 62 g/ha): 30
Plant response rating, Ducksalad ([4]; Rate 125 g/ha): 90
Plant response rating, Barnyardgrass [5, 28]: 100
Plant response rating, Barnyardgrass [5, 29]: 100
Plant response rating, Foxtail, Giant [6, 28]: 40
Plant response rating, Foxtail, Giant [6, 29]: 20
Plant response rating, Cocklebur [7, 28]: 0
Plant response rating, Lambsquarters [8, 28]: 100
Plant response rating, Lambsquarters [8, 29]: 100
Plant response rating, Velvetleaf [9, 28]: 20
Plant response rating, Velvetleaf [9, 29]: 0
Plant response rating, Surinam grass [10, 28]: 20
Plant response rating, Surinam grass [10, 29]: 20
Plant response rating, Crabgrass [11, 28]: 40
Plant response rating, Crabgrass [11, 29]: 0
Plant response rating, Rice (rice (Oryza saliva) [12]; [28]): 20
Plant response rating, Rice (rice (Oryza saliva) [12]; [29]): 0
Plant response rating, Morningglory [13, 28]: 20
Plant response rating, Pigweed [14, 28]: 100
Plant response rating, Pigweed [14, 29]: 100
Plant response rating, Corn (corn (Zea mays) [15]; [28]): 0
Plant response rating, Corn (corn (Zea mays) [15]; [29]): 0
Plant response rating, Barnyardgrass [16, 30]: 100
Plant response rating, Barnyardgrass [16, 31]: 100
Plant response rating, Wheat [17, 30]: 0
Plant response rating, Wheat [17, 31]: 0
Plant response rating, Foxtail, Giant [18, 30]: 0
Plant response rating, Foxtail, Giant [18, 31]: 60
Plant response rating, Cocklebur [19, 30]: 0
Plant response rating, Cocklebur [19, 31]: 20
Plant response rating, Lambsquarters [20, 30]: 90
Plant response rating, Lambsquarters [20, 31]: 90
Plant response rating, Velvetleaf [21, 30]: 20
Plant response rating, Velvetleaf [21, 31]: 20
Plant response rating, Blackgrass [22, 30]: 0
Plant response rating, Blackgrass [22, 31]: 0
Plant response rating, Wild Oat (wild oat (Avena fatua); [30]): 0
Plant response rating, Wild Oat (wild oat (Avena fatua); [31]): 0
Plant response rating, Surinam grass [23, 30]: 0
Plant response rating, Surinam grass [23, 31]: 30
Plant response rating, Crabgrass [24, 30]: 30
Plant response rating, Crabgrass [24, 31]: 100
Plant response rating, Morningglory [25, 30]: 0
Plant response rating, Morningglory [25, 31]: 0
Plant response rating, Pigweed [26, 30]: 0
Plant response rating, Pigweed [26, 31]: 0
Plant response rating, Corn (corn (Zea mays) [27]; [30]): 0
Plant response rating, Corn (corn (Zea mays) [27]; [31]): 0

Cc1c(Cl)cc(N2CCC(n3ccc(C(C)(C)C)n3)C2=O)cc1Cl (stereo not drawn) [Compound 74]
Barnyardgrass plant response rating ([1]; Rate 250 g/ha): 0
Barnyardgrass plant response rating ([1]; Rate 500 g/ha): 0
Plant response rating, Barnyardgrass ([1]; Rate 62 g/ha): 0
Plant response rating, Barnyardgrass ([1]; Rate 125 g/ha): 0
Flatsedge plant response rating ([2]; Rate 250 g/ha): 0
Flatsedge plant response rating ([2]; Rate 500 g/ha): 40
Plant response rating, Flatsedge ([2]; Rate 62 g/ha): 0
Plant response rating, Flatsedge ([2]; Rate 125 g/ha): 0
Rice plant response rating (rice (Oryza saliva) [3]; Rate 250 g/ha): 0
Rice plant response rating (rice (Oryza saliva) [3]; Rate 500 g/ha): 0
Plant response rating, Rice (rice (Oryza saliva) [3]; Rate 62 g/ha): 0
Plant response rating, Rice (rice (Oryza saliva) [3]; Rate 125 g/ha): 0
Ducksalad plant response rating ([4]; Rate 250 g/ha): 0
Ducksalad plant response rating ([4]; Rate 500 g/ha): 0
Plant response rating, Ducksalad ([4]; Rate 62 g/ha): 0
Plant response rating, Ducksalad ([4]; Rate 125 g/ha): 0
Plant response rating, Barnyardgrass [5, 28]: 90
Plant response rating, Barnyardgrass [5, 29]: 30
Plant response rating, Foxtail, Giant [6, 28]: 60
Plant response rating, Foxtail, Giant [6, 29]: 0
Plant response rating, Cocklebur [7, 28]: 0
Plant response rating, Cocklebur [7, 29]: 0
Plant response rating, Lambsquarters [8, 28]: 100
Plant response rating, Lambsquarters [8, 29]: 100
Plant response rating, Velvetleaf [9, 28]: 0
Plant response rating, Velvetleaf [9, 29]: 0
Plant response rating, Surinam grass [10, 28]: 20
Plant response rating, Surinam grass [10, 29]: 0
Plant response rating, Crabgrass [11, 28]: 70
Plant response rating, Crabgrass [11, 29]: 20
Plant response rating, Rice (rice (Oryza saliva) [12]; [28]): 0
Plant response rating, Rice (rice (Oryza saliva) [12]; [29]): 0
Plant response rating, Morningglory [13, 28]: 0
Plant response rating, Morningglory [13, 29]: 0
Plant response rating, Pigweed [14, 28]: 90
Plant response rating, Pigweed [14, 29]: 80
Plant response rating, Corn (corn (Zea mays) [15]; [28]): 0
Plant response rating, Corn (corn (Zea mays) [15]; [29]): 0
Plant response rating, Barnyardgrass [16, 30]: 0
Plant response rating, Barnyardgrass [16, 31]: 0
Plant response rating, Wheat [17, 30]: 0
Plant response rating, Wheat [17, 31]: 0
Plant response rating, Foxtail, Giant [18, 30]: 0
Plant response rating, Foxtail, Giant [18, 31]: 0
Plant response rating, Cocklebur [19, 30]: 0
Plant response rating, Cocklebur [19, 31]: 0
Plant response rating, Lambsquarters [20, 30]: 0
Plant response rating, Lambsquarters [20, 31]: 0
Plant response rating, Velvetleaf [21, 30]: 0
Plant response rating, Velvetleaf [21, 31]: 0
Plant response rating, Blackgrass [22, 30]: 0
Plant response rating, Blackgrass [22, 31]: 0
Plant response rating, Wild Oat (wild oat (Avena fatua); [30]): 0
Plant response rating, Wild Oat (wild oat (Avena fatua); [31]): 0
Plant response rating, Surinam grass [23, 30]: 0
Plant response rating, Surinam grass [23, 31]: 0
Plant response rating, Crabgrass [24, 30]: 0
Plant response rating, Crabgrass [24, 31]: 0
Plant response rating, Morningglory [25, 30]: 0
Plant response rating, Morningglory [25, 31]: 0
Plant response rating, Pigweed [26, 30]: 80
Plant response rating, Pigweed [26, 31]: 90
Plant response rating, Corn (corn (Zea mays) [27]; [30]): 0
Plant response rating, Corn (corn (Zea mays) [27]; [31]): 0
